Measurements from ChEMBL document CHEMBL5126505, “Adenosine receptor antagonists: Recent advances and therapeutic perspective” (Eur J Med Chem, 2022).
pIC50, pKi: −log10 of the molar value. Each block holds one compound with its values, some of them ahead of it.

Tests used:
[1] = target: T1, Adenosine receptor A3 (Homo sapiens, UniProt P0DMS8)
T1 sequence (P0DMS8 whole entry): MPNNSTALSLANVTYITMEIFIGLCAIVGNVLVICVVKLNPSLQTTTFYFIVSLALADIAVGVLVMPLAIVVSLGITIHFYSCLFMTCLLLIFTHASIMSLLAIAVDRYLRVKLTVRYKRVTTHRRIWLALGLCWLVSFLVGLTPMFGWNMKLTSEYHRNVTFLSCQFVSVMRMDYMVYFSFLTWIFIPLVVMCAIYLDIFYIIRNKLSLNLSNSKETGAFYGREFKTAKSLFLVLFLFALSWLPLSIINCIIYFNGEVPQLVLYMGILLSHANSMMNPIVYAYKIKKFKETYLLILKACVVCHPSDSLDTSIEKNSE
Description: Antagonist activity at human adenosine A3 receptor expressed in CHO cells assessed as cAMP level measured by enzyme immunoassay

[2] = target: T1, Adenosine receptor A3; experiment: biochemical
Description: Displacement of [3H]NECA from human adenosine A3 receptor expressed in HeLa cells measured by scintillation counting assay

[3] = target: T2, Adenosine receptor A2a (Homo sapiens, UniProt P29274)
Description: Binding affinity to human adenosine A2A receptor

[4] = target: T3, Amine oxidase [flavin-containing] B (Homo sapiens, UniProt P27338)
T3 sequence (P27338 whole entry): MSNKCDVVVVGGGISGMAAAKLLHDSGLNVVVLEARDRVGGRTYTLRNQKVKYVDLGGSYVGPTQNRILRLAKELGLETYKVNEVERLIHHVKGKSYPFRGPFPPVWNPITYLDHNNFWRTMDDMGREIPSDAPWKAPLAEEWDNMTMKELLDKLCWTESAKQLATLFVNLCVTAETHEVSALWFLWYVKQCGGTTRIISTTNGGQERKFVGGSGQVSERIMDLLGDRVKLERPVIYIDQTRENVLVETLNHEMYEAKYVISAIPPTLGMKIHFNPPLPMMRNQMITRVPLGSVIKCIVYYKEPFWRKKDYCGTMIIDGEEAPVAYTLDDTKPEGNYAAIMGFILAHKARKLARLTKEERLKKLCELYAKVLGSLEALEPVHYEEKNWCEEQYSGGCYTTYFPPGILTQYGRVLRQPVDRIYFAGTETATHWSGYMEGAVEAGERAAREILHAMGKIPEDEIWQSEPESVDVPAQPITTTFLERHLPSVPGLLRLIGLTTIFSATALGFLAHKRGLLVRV
Description: Inhibition of MAO-B (unknown origin)

[5] = in vivo; conditions: male, Wistar, rat
Description: Half-life in male Wistar rat

[6] = target: T4, Adenosine receptor A1 (Homo sapiens, UniProt P30542)
T4 sequence (P30542 whole entry): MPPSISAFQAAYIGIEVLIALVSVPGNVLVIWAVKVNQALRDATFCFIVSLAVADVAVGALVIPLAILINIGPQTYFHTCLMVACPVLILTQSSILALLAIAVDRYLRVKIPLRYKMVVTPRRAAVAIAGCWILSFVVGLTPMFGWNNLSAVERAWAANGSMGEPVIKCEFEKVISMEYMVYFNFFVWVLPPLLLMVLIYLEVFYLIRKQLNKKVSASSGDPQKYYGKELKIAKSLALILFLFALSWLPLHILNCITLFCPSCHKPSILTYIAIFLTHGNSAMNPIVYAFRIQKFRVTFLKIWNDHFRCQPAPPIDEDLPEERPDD
Description: Antagonist activity at human adenosine A1A receptor

[7] = target: T5, Adenosine receptor A2b (Homo sapiens, UniProt P29275); experiment: Antagonist activity at human adenosine A2B receptor expressed in HEK293 cells assessed as inhibition of cAMP production; assay type: functional, cell-based
T5 sequence (P29275 whole entry): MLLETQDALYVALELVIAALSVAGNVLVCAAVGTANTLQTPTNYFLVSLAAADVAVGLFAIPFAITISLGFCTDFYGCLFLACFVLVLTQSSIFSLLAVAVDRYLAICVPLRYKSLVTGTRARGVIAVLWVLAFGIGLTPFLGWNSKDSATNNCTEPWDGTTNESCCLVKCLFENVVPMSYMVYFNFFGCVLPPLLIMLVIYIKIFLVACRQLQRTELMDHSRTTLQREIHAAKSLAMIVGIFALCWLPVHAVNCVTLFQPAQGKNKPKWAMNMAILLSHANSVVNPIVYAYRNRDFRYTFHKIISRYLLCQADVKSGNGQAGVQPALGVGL

[8] = target: T5, Adenosine receptor A2b
Description: Binding affinity to human adenosine A2B receptor

[9] = target: T5, Adenosine receptor A2b; remark: listed apart in the source
Description: Antagonist activity at human adenosine A2B receptor expressed in mouse NIH/3T3 cells assessed as inhibition of NECA-induced IL-6 release

[10] = in vitro; conditions: human, liver microsomes
[11] = in vitro; conditions: human, Caco-2
Description: Apparent permeability in human Caco-2 cells

[12] = target: T2, Adenosine receptor A2a; experiment: Displacement of [3H]NECA from human adenosine A2A receptor expressed in CHO cells measured by radioligand competition assay; assay type: cell-based
[13] = target: T4, Adenosine receptor A1; experiment: Displacement of [3H]CCPA from human adenosine […] receptor expressed in CHO cells measured by radioligand competition assay; assay type: cell-based
[14] = species: Rattus norvegicus; experiment: animal or person; conditions: po
Description: Antiparkinson's activity in L-DOPA induced dyskinesia rat model assessed as reduction in contralateral rotations administered orally

[15] = target: T2, Adenosine receptor A2a; experiment: biochemical
Description: Displacement of [3H]ZM-241385 from human adenosine A2A receptor expressed in HEK293 cells incubated for 60 mins and measured by scintillation counting assay

[16] = species: Rattus norvegicus; experiment: animal or person; conditions: po, 4 h
Description: Reversal of haloperidol-induced catalepsy in rat administered orally and measured after 4 hrs

[17] = in vivo; conditions: male, Wistar, rat, iv, 3 mg/kg
Description: Half-life in male Wistar rat at 3 mg/kg, iv

T2 sequence (P29274 whole entry): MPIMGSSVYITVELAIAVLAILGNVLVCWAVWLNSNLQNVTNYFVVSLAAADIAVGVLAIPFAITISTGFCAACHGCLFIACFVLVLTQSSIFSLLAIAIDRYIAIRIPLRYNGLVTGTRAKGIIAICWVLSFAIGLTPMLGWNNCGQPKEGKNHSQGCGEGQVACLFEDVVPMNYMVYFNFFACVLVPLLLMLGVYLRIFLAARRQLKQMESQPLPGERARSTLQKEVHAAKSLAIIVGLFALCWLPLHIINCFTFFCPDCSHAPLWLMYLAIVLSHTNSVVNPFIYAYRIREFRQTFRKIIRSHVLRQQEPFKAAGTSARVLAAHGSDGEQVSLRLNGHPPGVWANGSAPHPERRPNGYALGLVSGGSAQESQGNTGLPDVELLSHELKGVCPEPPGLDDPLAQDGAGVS

pKi [3]: 7.55 | pIC50 [4]: 6.95
SMILES: Cn1c(=O)c2c(nc(/C=C/c3cccc(Br)c3)n2C)n(C)c1=O

half-life at 0.1 µM [10]: > 0.683 h | Papp [11]: 770 nm/s
SMILES: Nc1cc(-c2ccco2)c2oc(-c3ccco3)nc2c1

pKi [12]: 4.92 | pKi [13]: 5.62
SMILES: O=c1oc2c(O)cccc2cc1-c1ccc(Br)cc1

The remaining lines, values behind:

SMILES: CCn1nnc([C@H]2O[C@@H](n3cnc4c(N)nc(NC(C)Cc5ccc(OC)cc5)nc43)[C@H](O)[C@@H]2O)n1 (some centres not stated)
pKi [1]: 8.22 | pKi [2]: 7.89

SMILES: CCCn1c(Oc2ccc(F)c(F)c2)nc2nc(C3CCCC3)[nH]c2c1=O
half-life [5]: 2 h | pKi [6]: 8.70

SMILES: CCCn1c(=O)c2[nH]c(-c3cnn(CC#Cc4cccc(OC(F)(F)F)c4)c3)nc2n(CCC)c1=O
pKi [7]: 8.10 | pKi [8]: 7.89 | pIC50 [9]: 6.97

SMILES: COCCOc1ccc(N2CCN(CCn3c(=O)n(C)c4c3nc(N)n3nc(-c5nccs5)nc43)CC2)c(F)c1
ED50 [14]: 1.2 mg/kg | pKi [15]: 9.40 | ED50 [16]: 4.49 mg/kg | half-life [17]: 1 h
